According to PubChem BioAssay (NCI):
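Test compounds were applied to cells in 96-well plates for 48 hours at 5 doses. Definition used: TGI = concentration required for complete inhibition of growth.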

tested on: K-562 leukemia; assay: NCI anticancer screen, dose series, 48 h

Structure (SMILES) | TGI [µM]
OC1=C2c3ccccc3NC2Oc2cc(F)ccc21 (centres undefined) | 48.5

tested on: SK-MEL-28 melanoma; assay: NCI anticancer screen, dose series, 48 h

Structure (SMILES) | TGI [µM]
CCOc1cccc(C=Nc2ccccc2SSc2ccccc2N=Cc2cccc(OCC)c2O)c1O | 26.2
Cc1c2c(cc3c1C(=O)C(=O)C([C@@H](C)CO)=C3O)C(C)(C)CCC2 | > 100
C[N+]12CCCCC1C(COc1cccc3cccnc13)CCC2 (centres undefined) | > 100
NC(=O)NC1NC(=O)NC1=O (centres undefined) | > 100
CC[C@@]1(O)C(=O)OCc2c1cc1n(c2=O)Cc2c-1nc1ccccc1c2/C=N\NC(=O)C[n+]1ccccc1 | > 100
COc1ccc(CC2Cc3ccccc3CCN2)cc1OC (centres undefined) | > 50
C=CCN1C(=O)/C(=C/c2ccc(Cl)cc2)N=C1SC/C=C/C | > 100
CC12Nc3c(Cl)cc(Cl)cc3N1C(=O)c1ccccc12 (centres undefined) | > 100
CN(C)CCn1c(=O)c2ccc(NCCNCCO)c3c(=O)c4ccccc4n(c1=O)c23 | > 19.7
OCC1OC(NC(=S)NCCC(F)(F)C(F)(F)C(F)(F)C(F)(F)C(F)(F)C(F)(F)F)C(O)C(O)C1O (centres undefined) | > 100
COC(=O)c1ccccc1/C=C1\Cc2c(ccc3c2CCC3)C1=O | > 100
Nc1cc(Cl)cc2cc(Cl)cnc12 | > 100
O=S(=O)(O)CCSSCCS(=O)(=O)O | > 1000
CC1=CC[C@H](C[C@H](C#CCCCC2OCCO2)O[Si](C(C)C)(C(C)C)C(C)C)C(=O)CC1 | > 100
CC(=O)OCC1OC(NC(=S)Nn2c(=O)[nH]c3ccccc3c2=O)C(OC(C)=O)C(OC(C)=O)C1OC(C)=O (centres undefined) | > 100
Cc1ccc2c(c1)C(=O)C1(C2)Cc2c(C)cccc2C1=O (centres undefined) | > 100
CC1=NN(c2cccc(S(=O)(=O)O)c2)C2(C1)C(Cl)C(=O)N2c1nc2ccccc2s1 (centres undefined) | 36.1
O=c1[nH]c(=O)n(C/C=C/CO)nc1Br | > 100
O=C1Cc2c([nH]c3ccc(Br)cc23)-c2cc(Br)ccc2N1 | > 100
O=C1CC(Br)c2c(Br)sc(Br)c21 (centres undefined) | > 100
CC[C@]12C=CCN3CC[C@@]4(c5cc(Br)c(OC)c([N+](=O)[O-])c5N(C)[C@H]4[C@@](O)(C(=O)OC)[C@@H]1OC(C)=O)[C@@H]32 | > 100
COc1ccc(CNc2ccn(C3OC(CO)C(O)C3O)c(=O)n2)cc1 (centres undefined) | > 100
COc1ccc(NC(=S)Nc2cc(C)ccn2)cc1 | > 100
NC(CSS(=O)(=O)O)=NC1CC2CCC1C2 (centres undefined) | > 100
COc1cccc(Nc2nc(C)c([N+](=O)[O-])c(Nc3cccc(OC)c3)n2)c1 | > 100
O=c1[nH]c2cccc([N+](=O)[O-])c2c(=O)n1-c1ccc(Cl)cc1 | 26.8
O=[N+]([O-])/C(C(Cl)=C(Cl)Cl)=C1\Nc2ccc([N+](=O)[O-])cc2N1 | > 100
OC1=C2c3ccccc3NC2Oc2cc(F)ccc21 (centres undefined) | > 100

tested on: NCI-H226 lung; assay: NCI anticancer screen, dose series, 48 h

Structure (SMILES) | TGI [µM]
CCOc1cccc(C=Nc2ccccc2SSc2ccccc2N=Cc2cccc(OCC)c2O)c1O | 22.5
COc1cc(C(=O)NNC(=O)c2cc(Br)ccc2NC(=O)c2cccs2)cc(OC)c1OC | 36.5
Cc1c2c(cc3c1C(=O)C(=O)C([C@@H](C)CO)=C3O)C(C)(C)CCC2 | > 100
C[N+]12CCCCC1C(COc1cccc3cccnc13)CCC2 (centres undefined) | > 100
NC(=O)NC1NC(=O)NC1=O (centres undefined) | > 100
CC[C@@]1(O)C(=O)OCc2c1cc1n(c2=O)Cc2c-1nc1ccccc1c2/C=N\NC(=O)C[n+]1ccccc1 | > 29.7
COc1ccc(CC2Cc3ccccc3CCN2)cc1OC (centres undefined) | > 50
C=CCN1C(=O)/C(=C/c2ccc(Cl)cc2)N=C1SC/C=C/C | > 100
CC12Nc3c(Cl)cc(Cl)cc3N1C(=O)c1ccccc12 (centres undefined) | > 100
CN(C)CCn1c(=O)c2ccc(NCCNCCO)c3c(=O)c4ccccc4n(c1=O)c23 | 4.28
COC(=O)c1ccccc1/C=C1\Cc2c(ccc3c2CCC3)C1=O | > 100
Nc1cc(Cl)cc2cc(Cl)cnc12 | > 100
O=S(=O)(O)CCSSCCS(=O)(=O)O | > 1000
CC1=CC[C@H](C[C@H](C#CCCCC2OCCO2)O[Si](C(C)C)(C(C)C)C(C)C)C(=O)CC1 | > 100
CC(=O)OCC1OC(NC(=S)Nn2c(=O)[nH]c3ccccc3c2=O)C(OC(C)=O)C(OC(C)=O)C1OC(C)=O (centres undefined) | > 100
Cc1ccc2c(c1)C(=O)C1(C2)Cc2c(C)cccc2C1=O (centres undefined) | > 100
CC1=NN(c2cccc(S(=O)(=O)O)c2)C2(C1)C(Cl)C(=O)N2c1nc2ccccc2s1 (centres undefined) | 22.2
O=c1[nH]c(=O)n(C/C=C/CO)nc1Br | > 100
O=C1Cc2c([nH]c3ccc(Br)cc23)-c2cc(Br)ccc2N1 | > 100
O=C1CC(Br)c2c(Br)sc(Br)c21 (centres undefined) | 54.6
CC[C@]12C=CCN3CC[C@@]4(c5cc(Br)c(OC)c([N+](=O)[O-])c5N(C)[C@H]4[C@@](O)(C(=O)OC)[C@@H]1OC(C)=O)[C@@H]32 | > 100
COc1ccc(CNc2ccn(C3OC(CO)C(O)C3O)c(=O)n2)cc1 (centres undefined) | > 100
COc1ccc(NC(=S)Nc2cc(C)ccn2)cc1 | > 100
NC(CSS(=O)(=O)O)=NC1CC2CCC1C2 (centres undefined) | > 100
COc1cccc(Nc2nc(C)c([N+](=O)[O-])c(Nc3cccc(OC)c3)n2)c1 | > 100
O=c1[nH]c2cccc([N+](=O)[O-])c2c(=O)n1-c1ccc(Cl)cc1 | 30.1
O=[N+]([O-])/C(C(Cl)=C(Cl)Cl)=C1\Nc2ccc([N+](=O)[O-])cc2N1 | > 100
OC1=C2c3ccccc3NC2Oc2cc(F)ccc21 (centres undefined) | 89.5

tested on: KM12 colon; assay: NCI anticancer screen, dose series, 48 h

Structure (SMILES) | TGI [µM]
CCOc1cccc(C=Nc2ccccc2SSc2ccccc2N=Cc2cccc(OCC)c2O)c1O | 19.6
COc1cc(C(=O)NNC(=O)c2cc(Br)ccc2NC(=O)c2cccs2)cc(OC)c1OC | > 100
Cc1c2c(cc3c1C(=O)C(=O)C([C@@H](C)CO)=C3O)C(C)(C)CCC2 | 34.2
C[N+]12CCCCC1C(COc1cccc3cccnc13)CCC2 (centres undefined) | > 100
NC(=O)NC1NC(=O)NC1=O (centres undefined) | > 100
CC[C@@]1(O)C(=O)OCc2c1cc1n(c2=O)Cc2c-1nc1ccccc1c2/C=N\NC(=O)C[n+]1ccccc1 | > 100
COc1ccc(CC2Cc3ccccc3CCN2)cc1OC (centres undefined) | > 50
C=CCN1C(=O)/C(=C/c2ccc(Cl)cc2)N=C1SC/C=C/C | > 100
CC12Nc3c(Cl)cc(Cl)cc3N1C(=O)c1ccccc12 (centres undefined) | > 100
CN(C)CCn1c(=O)c2ccc(NCCNCCO)c3c(=O)c4ccccc4n(c1=O)c23 | 2.42
OCC1OC(NC(=S)NCCC(F)(F)C(F)(F)C(F)(F)C(F)(F)C(F)(F)C(F)(F)F)C(O)C(O)C1O (centres undefined) | > 100
COC(=O)c1ccccc1/C=C1\Cc2c(ccc3c2CCC3)C1=O | > 100
Nc1cc(Cl)cc2cc(Cl)cnc12 | > 100
O=S(=O)(O)CCSSCCS(=O)(=O)O | > 1000
CC1=CC[C@H](C[C@H](C#CCCCC2OCCO2)O[Si](C(C)C)(C(C)C)C(C)C)C(=O)CC1 | > 100
CC(=O)OCC1OC(NC(=S)Nn2c(=O)[nH]c3ccccc3c2=O)C(OC(C)=O)C(OC(C)=O)C1OC(C)=O (centres undefined) | > 100
Cc1ccc2c(c1)C(=O)C1(C2)Cc2c(C)cccc2C1=O (centres undefined) | > 100
CC1=NN(c2cccc(S(=O)(=O)O)c2)C2(C1)C(Cl)C(=O)N2c1nc2ccccc2s1 (centres undefined) | 27.4
O=c1[nH]c(=O)n(C/C=C/CO)nc1Br | > 100
O=C1Cc2c([nH]c3ccc(Br)cc23)-c2cc(Br)ccc2N1 | > 100
O=C1CC(Br)c2c(Br)sc(Br)c21 (centres undefined) | 49
CC[C@]12C=CCN3CC[C@@]4(c5cc(Br)c(OC)c([N+](=O)[O-])c5N(C)[C@H]4[C@@](O)(C(=O)OC)[C@@H]1OC(C)=O)[C@@H]32 | > 100
COc1ccc(CNc2ccn(C3OC(CO)C(O)C3O)c(=O)n2)cc1 (centres undefined) | > 100
COc1ccc(NC(=S)Nc2cc(C)ccn2)cc1 | > 100
NC(CSS(=O)(=O)O)=NC1CC2CCC1C2 (centres undefined) | > 100
O=C(O)c1cccc(Nc2c(C(=O)O)cccc2[N+](=O)[O-])c1 | > 100
O=c1[nH]c2cccc([N+](=O)[O-])c2c(=O)n1-c1ccc(Cl)cc1 | 34.4
O=[N+]([O-])/C(C(Cl)=C(Cl)Cl)=C1\Nc2ccc([N+](=O)[O-])cc2N1 | > 100
OC1=C2c3ccccc3NC2Oc2cc(F)ccc21 (centres undefined) | 31.2

tested on: UACC-257 melanoma; assay: NCI anticancer screen, dose series, 48 h

Structure (SMILES) | TGI [µM]
CCOc1cccc(C=Nc2ccccc2SSc2ccccc2N=Cc2cccc(OCC)c2O)c1O | 21.2
COc1cc(C(=O)NNC(=O)c2cc(Br)ccc2NC(=O)c2cccs2)cc(OC)c1OC | 56.9
Cc1c2c(cc3c1C(=O)C(=O)C([C@@H](C)CO)=C3O)C(C)(C)CCC2 | > 100
C[N+]12CCCCC1C(COc1cccc3cccnc13)CCC2 (centres undefined) | > 100
NC(=O)NC1NC(=O)NC1=O (centres undefined) | > 100
CC[C@@]1(O)C(=O)OCc2c1cc1n(c2=O)Cc2c-1nc1ccccc1c2/C=N\NC(=O)C[n+]1ccccc1 | > 84.5
COc1ccc(CC2Cc3ccccc3CCN2)cc1OC (centres undefined) | > 50
C=CCN1C(=O)/C(=C/c2ccc(Cl)cc2)N=C1SC/C=C/C | > 100
CC12Nc3c(Cl)cc(Cl)cc3N1C(=O)c1ccccc12 (centres undefined) | > 100
CN(C)CCn1c(=O)c2ccc(NCCNCCO)c3c(=O)c4ccccc4n(c1=O)c23 | 3.14
OCC1OC(NC(=S)NCCC(F)(F)C(F)(F)C(F)(F)C(F)(F)C(F)(F)C(F)(F)F)C(O)C(O)C1O (centres undefined) | > 100
COC(=O)c1ccccc1/C=C1\Cc2c(ccc3c2CCC3)C1=O | > 100
Nc1cc(Cl)cc2cc(Cl)cnc12 | > 100
O=S(=O)(O)CCSSCCS(=O)(=O)O | > 1000
CC1=CC[C@H](C[C@H](C#CCCCC2OCCO2)O[Si](C(C)C)(C(C)C)C(C)C)C(=O)CC1 | > 100
CC(=O)OCC1OC(NC(=S)Nn2c(=O)[nH]c3ccccc3c2=O)C(OC(C)=O)C(OC(C)=O)C1OC(C)=O (centres undefined) | > 100
Cc1ccc2c(c1)C(=O)C1(C2)Cc2c(C)cccc2C1=O (centres undefined) | > 100
CC1=NN(c2cccc(S(=O)(=O)O)c2)C2(C1)C(Cl)C(=O)N2c1nc2ccccc2s1 (centres undefined) | 28.3
O=c1[nH]c(=O)n(C/C=C/CO)nc1Br | > 100
O=C1Cc2c([nH]c3ccc(Br)cc23)-c2cc(Br)ccc2N1 | > 100
O=C1CC(Br)c2c(Br)sc(Br)c21 (centres undefined) | 29.1
CC[C@]12C=CCN3CC[C@@]4(c5cc(Br)c(OC)c([N+](=O)[O-])c5N(C)[C@H]4[C@@](O)(C(=O)OC)[C@@H]1OC(C)=O)[C@@H]32 | > 100
COc1ccc(CNc2ccn(C3OC(CO)C(O)C3O)c(=O)n2)cc1 (centres undefined) | > 100
COc1ccc(NC(=S)Nc2cc(C)ccn2)cc1 | > 100
NC(CSS(=O)(=O)O)=NC1CC2CCC1C2 (centres undefined) | > 100
COc1cccc(Nc2nc(C)c([N+](=O)[O-])c(Nc3cccc(OC)c3)n2)c1 | 46.7
O=C(O)c1cccc(Nc2c(C(=O)O)cccc2[N+](=O)[O-])c1 | > 100
O=c1[nH]c2cccc([N+](=O)[O-])c2c(=O)n1-c1ccc(Cl)cc1 | 29.6
